{"source": "BindingDB's records for patent US20250313563", "about": "(The Broad Institute, 2025)", "key": {"[1]": {"molecular_target": "Glycogen synthase kinase-3 alpha (Homo sapiens, UniProt P49840)", "sequence (P49840 whole entry)": "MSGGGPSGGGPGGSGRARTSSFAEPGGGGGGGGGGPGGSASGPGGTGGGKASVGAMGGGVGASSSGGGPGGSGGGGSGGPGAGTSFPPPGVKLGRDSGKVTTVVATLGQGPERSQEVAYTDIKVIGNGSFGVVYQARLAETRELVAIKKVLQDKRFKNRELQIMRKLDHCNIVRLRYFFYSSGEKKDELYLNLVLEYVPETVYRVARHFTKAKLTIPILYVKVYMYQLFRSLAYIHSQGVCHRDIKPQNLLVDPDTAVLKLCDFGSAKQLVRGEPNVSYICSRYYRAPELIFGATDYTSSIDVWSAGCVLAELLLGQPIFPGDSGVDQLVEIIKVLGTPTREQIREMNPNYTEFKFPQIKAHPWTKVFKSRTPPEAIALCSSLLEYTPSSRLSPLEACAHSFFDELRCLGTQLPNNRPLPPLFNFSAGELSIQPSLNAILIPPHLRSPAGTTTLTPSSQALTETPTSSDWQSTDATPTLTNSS", "experiment": "TR-FRET Assay", "summary_of_the_method": "(§1)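 Signal is measured as TR-FRET between a terbium anti-phospho-Ser641 antibody and streptavidin-d2, added after an EDTA quench. Compounds are preincubated 30 min in assay buffer.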"}, "[2]": {"molecular_target": "Glycogen synthase kinase-3 beta (Homo sapiens, UniProt P49841)", "sequence (P49841 whole entry)": "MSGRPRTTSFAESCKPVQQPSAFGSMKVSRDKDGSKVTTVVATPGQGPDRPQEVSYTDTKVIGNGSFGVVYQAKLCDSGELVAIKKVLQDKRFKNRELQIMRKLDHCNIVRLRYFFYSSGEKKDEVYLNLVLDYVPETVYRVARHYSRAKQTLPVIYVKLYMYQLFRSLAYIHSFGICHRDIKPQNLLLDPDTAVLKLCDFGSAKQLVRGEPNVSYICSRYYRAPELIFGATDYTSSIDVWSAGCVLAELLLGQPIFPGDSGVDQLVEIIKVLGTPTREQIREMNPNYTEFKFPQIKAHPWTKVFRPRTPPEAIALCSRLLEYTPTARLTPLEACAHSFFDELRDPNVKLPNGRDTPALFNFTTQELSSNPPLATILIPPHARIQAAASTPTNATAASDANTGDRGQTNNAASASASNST", "experiment": "TR-FRET Assay", "summary_of_the_method": "as §1"}}, "note": "Several values for one entry are separate records, joined by “and”; a condition that tells them apart may be missing. Identical values can stand only once."}
{"compound": "CC[C@@]1(c2cccc(-c3cnn(C(C)C)c3F)c2)C2=CN=NC2NC2=C1C(=O)NC(C)(C)C2", "note": "(some centres undefined) [US20250313563, Compound 950061]", "values": [{"measurement": "IC50", "setting": "[1]", "result": "0.1 to 1", "unit": "µM"}, {"measurement": "IC50", "setting": "[2]", "result": "> 5", "unit": "µM"}]}
{"compound": "CC1(C)CC(=O)C2=C(C1)NC1=C(CN=N1)C21CCOC1", "note": "(centres undefined) [US20250313563, Compound 826713]", "values": [{"measurement": "IC50", "setting": "[1]", "result": "0.1 to 1", "unit": "µM"}, {"measurement": "IC50", "setting": "[2]", "result": "0.1 to 1", "unit": "µM"}]}
{"compound": "CCC1(c2cccc(Cl)c2)C2=C(CC(C)(C)CC2=O)NC2N=NC(C)=C21", "note": "(centres undefined) [US20250313563, Compound 789336]", "values": [{"measurement": "IC50", "setting": "[1]", "result": "< 0.1", "unit": "µM"}, {"measurement": "IC50", "setting": "[2]", "result": "0.1 to 1", "unit": "µM"}]}
{"compound": "CCC1(c2cccc(-c3cnn(C)c3)c2)C2=C(CC(C)(C)CC2=O)NC2N=NC(C(F)(F)F)=C21", "note": "(centres undefined) [US20250313563, Compound 801445]", "values": [{"measurement": "IC50", "setting": "[1]", "result": "< 0.1", "unit": "µM"}, {"measurement": "IC50", "setting": "[2]", "result": "< 0.1", "unit": "µM"}]}
{"compound": "CC[C@@]1(c2cccc(N3CCC3)c2)C2=CN=NC2NC2=C1C(=O)CC(C)(C)C2", "note": "(some centres undefined) [US20250313563, Compound 889632]", "values": [{"measurement": "IC50", "setting": "[1]", "result": "> 5", "unit": "µM"}, {"measurement": "IC50", "setting": "[2]", "result": "> 5", "unit": "µM"}]}
{"compound": "CC[C@@]1(c2cccc(C(F)(F)F)c2)C2=C(N=NC2)NC2=C1C(=O)N[C@@H]2C", "note": "[US20250313563, Compound 945380]", "values": [{"measurement": "IC50", "setting": "[1]", "result": "> 5", "unit": "µM"}, {"measurement": "IC50", "setting": "[2]", "result": "> 5", "unit": "µM"}]}
{"compound": "CC[C@@]1(c2cccc(-c3c(F)cncc3OC)c2)C2=CN=NC2NC2=C1C(=O)CC(C)(C)[C@H]2F", "note": "(some centres undefined) [US20250313563, Compound 948547]", "values": [{"measurement": "IC50", "setting": "[1]", "result": "0.1 to 1", "unit": "µM"}, {"measurement": "IC50", "setting": "[2]", "result": "1 to 5", "unit": "µM"}]}
{"compound": "CC[C@]1(c2cccc(N(C)c3ccnc(F)c3)c2)C2=CN=NC2NC2=C1C(=O)CC(C)(C)C2", "note": "(some centres undefined) [US20250313563, Compound 929444]", "values": [{"measurement": "IC50", "setting": "[1]", "result": "< 0.1", "unit": "µM"}, {"measurement": "IC50", "setting": "[2]", "result": "< 0.1", "unit": "µM"}]}
{"compound": "CC1(C)CC(=O)C2=C(C1)NC1=C(CN=N1)[C@@]21CCN(S(=O)(=O)c2ccccc2F)C1", "note": "[US20250313563, Compound 945719]", "values": [{"measurement": "IC50", "setting": "[1]", "result": "< 0.1", "unit": "µM"}, {"measurement": "IC50", "setting": "[2]", "result": "< 0.1", "unit": "µM"}]}
{"compound": "CC[C@]1(c2cccc(C(F)(F)F)c2)C2=CN=NC2NC2=C1C(=O)N(c1cncnc1)CC2", "note": "(some centres undefined) [US20250313563, Compound 948379]", "values": [{"measurement": "IC50", "setting": "[1]", "result": "0.1 to 1", "unit": "µM"}, {"measurement": "IC50", "setting": "[2]", "result": "0.1 to 1", "unit": "µM"}]}
{"compound": "CC[C@@]1(c2cccc(Br)c2)C2=CN=NC2NC2=C1C(=O)C[C@@H](C)C2", "note": "(some centres undefined) [US20250313563, Compound 810485]", "values": [{"measurement": "IC50", "setting": "[1]", "result": "> 5", "unit": "µM"}, {"measurement": "IC50", "setting": "[2]", "result": "> 5", "unit": "µM"}]}
{"compound": "CC[C@@]1(c2cccc(-c3ccnc(O)c3)c2)C2=CN=NC2NC2=C1C(=O)CC(C)(C)C2", "note": "(some centres undefined) [US20250313563, Compound 943993]", "values": [{"measurement": "IC50", "setting": "[1]", "result": "> 5", "unit": "µM"}, {"measurement": "IC50", "setting": "[2]", "result": "> 5", "unit": "µM"}]}
{"compound": "CC[C@]1(c2cccc(C(F)(F)F)c2)C2=CN=NC2NC2=C1C(=O)N(CC(F)(F)F)CC2", "note": "(some centres undefined) [US20250313563, Compound 912205]", "values": [{"measurement": "IC50", "setting": "[1]", "result": "> 5", "unit": "µM"}, {"measurement": "IC50", "setting": "[2]", "result": "> 5", "unit": "µM"}]}
{"compound": "CC1(C)CC(=O)C2=C(C1)NC1=C(CN=N1)C21CCN(S(=O)(=O)c2cnccc2C(F)(F)F)CC1", "note": "[US20250313563, Compound 947463]", "values": [{"measurement": "IC50", "setting": "[1]", "result": "< 0.1", "unit": "µM"}, {"measurement": "IC50", "setting": "[2]", "result": "0.1 to 1", "unit": "µM"}]}
{"compound": "CCC1(c2cccc(CNC)c2)C2=CN=NC2NC2=C1C(=O)CC(C)(C)C2", "note": "(centres undefined) [US20250313563, Compound 826651]", "values": [{"measurement": "IC50", "setting": "[1]", "result": "1 to 5", "unit": "µM"}, {"measurement": "IC50", "setting": "[2]", "result": "> 5", "unit": "µM"}]}
{"compound": "CC1CCCC12C1=C(N=NC1)NC1=C2C(=O)CC(C)(C)C1", "note": "(centres undefined) [US20250313563, Compound 826765]", "values": [{"measurement": "IC50", "setting": "[1]", "result": "0.1 to 1", "unit": "µM"}, {"measurement": "IC50", "setting": "[2]", "result": "1 to 5", "unit": "µM"}]}
{"compound": "CC[C@@]1(c2cccc(C3CC3)c2)C2=CN=NC2NC2=C1C(=O)NC(C)(C)C2", "note": "(some centres undefined) [US20250313563, Compound 950828]", "values": [{"measurement": "IC50", "setting": "[1]", "result": "< 0.1 µM and 1 to 5 µM"}, {"measurement": "IC50", "setting": "[2]", "result": "> 5", "unit": "µM"}]}
{"compound": "CCC1(c2cccc(C(F)(F)C(F)(F)F)c2)C2=CN=NC2NC2=C1C(=O)CC(C)(C)C2", "note": "(centres undefined) [US20250313563, Compound 948615]", "values": [{"measurement": "IC50", "setting": "[1]", "result": "< 0.1", "unit": "µM"}, {"measurement": "IC50", "setting": "[2]", "result": "< 0.1", "unit": "µM"}]}
{"compound": "CC1(C)CC(=O)C2=C(C1)NC1=C(CN=N1)C21CCN(S(=O)(=O)c2cccc3c2OCCO3)CC1", "note": "[US20250313563, Compound 947464]", "values": [{"measurement": "IC50", "setting": "[1]", "result": "< 0.1", "unit": "µM"}, {"measurement": "IC50", "setting": "[2]", "result": "< 0.1 µM and 0.1 to 1 µM"}]}
{"compound": "CCC1(c2cccc(C(F)(F)F)c2)C2=CN=NC2NC2=C1C(=O)NC(C(C)(C)C)C2", "note": "(centres undefined) [US20250313563, Compound 945635]", "values": [{"measurement": "IC50", "setting": "[1]", "result": "< 0.1", "unit": "µM"}, {"measurement": "IC50", "setting": "[2]", "result": "0.1 to 1", "unit": "µM"}]}
{"compound": "CC1(C)CC(=O)C2=C(C1)NC1=C(CN=N1)C21CCN(S(=O)(=O)c2ccc(OC(F)F)cc2)CC1", "note": "[US20250313563, Compound 947246]", "values": [{"measurement": "IC50", "setting": "[1]", "result": "< 0.1", "unit": "µM"}, {"measurement": "IC50", "setting": "[2]", "result": "< 0.1 µM and 0.1 to 1 µM"}]}
{"compound": "CC[C@@]1(c2cccc(-c3cc(C)ncc3OC)c2)C2=CN=NC2NC2=C1C(=O)NC(C)(C)C2", "note": "(some centres undefined) [US20250313563, Compound 949512]", "values": [{"measurement": "IC50", "setting": "[1]", "result": "1 to 5", "unit": "µM"}, {"measurement": "IC50", "setting": "[2]", "result": "> 5", "unit": "µM"}]}
{"compound": "CC[C@@]1(c2cccc(N(C)c3ncccn3)c2)C2=C(CC(C)(C)NC2=O)NC2N=NC(F)=C21", "note": "(some centres undefined) [US20250313563, Compound 949648]", "values": [{"measurement": "IC50", "setting": "[1]", "result": "< 0.1", "unit": "µM"}, {"measurement": "IC50", "setting": "[2]", "result": "< 0.1 µM and 1 to 5 µM"}]}
{"compound": "Cc1cc(S(=O)(=O)N2CCC3(CC2)C2=C(N=NC2)NC2=C3C(=O)CC(C)(C)C2)cc(C)n1", "note": "[US20250313563, Compound 947616]", "values": [{"measurement": "IC50", "setting": "[1]", "result": "< 0.1 µM and 0.1 to 1 µM"}, {"measurement": "IC50", "setting": "[2]", "result": "< 0.1 µM and 1 to 5 µM"}]}
{"compound": "CC[C@@H]1C[C@@]2(CO1)C1=C(N=NC1)NC1=C2C(=O)CC(C)(C)C1", "note": "[US20250313563, Compound 913215]", "values": [{"measurement": "IC50", "setting": "[1]", "result": "0.1 to 1", "unit": "µM"}, {"measurement": "IC50", "setting": "[2]", "result": "1 to 5", "unit": "µM"}]}
{"compound": "CC[C@]1(c2cccc(-c3ccncc3C)c2)C2=C(CC(C)(C)NC2=O)NC2N=NC(C(F)(F)F)=C21", "note": "(some centres undefined) [US20250313563, Compound 947812]", "values": [{"measurement": "IC50", "setting": "[1]", "result": "< 0.1", "unit": "µM"}, {"measurement": "IC50", "setting": "[2]", "result": "< 0.1", "unit": "µM"}]}
{"compound": "CC1(C)CC(=O)C2=C(C1)NC1=C(CN=N1)C21CCC(F)(F)CC1", "note": "[US20250313563, Compound 883972]", "values": [{"measurement": "IC50", "setting": "[1]", "result": "< 0.1", "unit": "µM"}, {"measurement": "IC50", "setting": "[2]", "result": "0.1 to 1", "unit": "µM"}]}
